Results on 21 compounds are retold here after patent US10688080B2, “Compositions, methods of use, and methods of treatment” (priority 2016, dated 2020).

Test [1] concerns the target T1, KPC-2 (Klebsiella pneumoniae, UniProt Q9F663).
T1 construct: made in house; host or cells: bacteria, IPTG-induced
The test is described as follows: Steady-state kinetic nitrocefin hydrolysis inhibition, KPC-2. It counts as biochemical. The method, then:
For His tag KPC-2 beta-lactamase, bacteria were grown overnight at 30 C with shaking in 50 mL LB broth supplemented with 50 μg/mL kanamycin. Two liters of LB broth supplemented with 50 μg/mL kanamycin, 200 mM sorbitol, and 5 mM betaine were each inoculated with 10 mL of overnight bacterial culture. Cultures were then grown at 37 C until an optical density at 600 nm (OD600) of 0.6-0.7. Protein expression was then initiated by the addition of IPTG (final concentration 0.5 mM), followed by growth for 16 hr at 20 C. Cells were pelleted by centrifugation and stored at −80 C until further use. The his tag KPC-2 beta-lactamase was purified by nickel affinity chromatography and gel filtration. Briefly, the cell pellets were thawed and re-suspended in 40 mL of buffer A (20 mM Tris-HCl pH 8.0, 300 mM NaCl, 20 mM imidazole) with one complete protease inhibitor cocktail tablet (Roche) and disrupted by sonication, followed by ultracentrifugation to clarify the lysate. After ultracentrifugation, the supernatant was passed through a 0.22 μm filter before loading onto a 5 mL HisTrap HP affinity column (GE Healthcare Life Sciences, USA) pre-equilibrated with buffer A. His tag KPC-2 was eluted by a linear imidazole gradient (20 mM to 500 mM). Fractions were analyzed by SDS-PAGE. Fractions containing his tag KPC-2 were concentrated using a 10 k NMWL Amicon Ultra-15 Centrifugal Filter Unit. Concentrated his tag KPC-2 was then loaded onto a superdex 75 gel filtration column (GE Healthcare Life Sciences) pre-equilibrated with 20 mM Tris-HCl pH 8.0, 300 mM NaCl. Protein concentration was determined by absorbance at 280 using an extinction coefficient of 39,545.
(§1) Steady-state kinetic parameters were determined by using a Biotek Cytation 5 Cell Imaging Multi-Mode Reader. For KPC-2 and CTX M-14, each assay was performed in 100 mM Tris-HCl pH 7.0, 0.01% Triton X-100 at 37 C. Vmax and Km were determined from initial steady-state velocities from nitrocefin read at a wavelength of 486 nm. The kinetic parameters were obtained using the non-linear portion of the data to the Henri-Michaelis (equation 1) using Gera version 2.07. V=Vmax[S]/(Km+[S]) (Equation 1)
(§2) IC50, defined as the inhibitor concentration that results in a 50% reduction of nitrocefin (20 μM for KPC-2 and 50 μM for CTX M-14) hydrolysis was determined by measurements of initial velocities after mixing 1 nM of KPC-2 or CTX M-14 with increasing concentrations of inhibitors. The inhibition constant (Ki) was calculated according to equation 2: Ki=IC50/([S]/Km+1) (Equation 2)

Test [2] has as its target T2, NDM-1 (Klebsiella pneumoniae, UniProt C7C422).
T2 construct: SUMO tag (cleaved yes); made in house; host or cells: bacteria, IPTG-induced
The test is described as follows: Steady-state kinetic nitrocefin hydrolysis inhibition, NDM-1. It counts as biochemical. The settings on record: for Ki: nitrocefin 10 μM, 1 μM ZnSO4, Ki=IC50/([S]/Km+1). The method, then: For sumo tag NDM-1 metallo-beta-lactamase, bacteria were grown overnight at 30 C with shaking in 50 mL LB broth supplemented with 100 μg/mL ampicillin. Two liters of LB broth supplemented with 100 μg/mL ampicillin were each inoculated with 10 mL of overnight bacterial culture. Cultures were then grown at 37 C until an optical density at 600 nm (OD600) of 0.6-0.7. Protein expression was then initiated by the addition of IPTG (final concentration 0.5 mM), followed by growth for 16 hr at 20 C. Cells were pelleted by centrifugation and stored at −80 C until further use. The sumo tag NDM-1 beta-lactamase was purified by nickel affinity chromatography and gel filtration. Briefly, the cell pellets were thawed and re-suspended in 40 mL of buffer A (20 mM HEPES pH 7.4, 0.5 M NaCl, 20 mM imidazole) with one complete protease inhibitor cocktail tablet (Roche) and disrupted by sonication, followed by ultracentrifugation to clarify the lysate. After ultracentrifugation, the supernatant was passed through a 0.22 μm filter before loading onto a 5 mL HisTrap HP affinity column (GE Healthcare Life Sciences, USA) pre-equilibrated with buffer A. Sumo tag NDM-1 was eluted by a linear imidazole gradient (20 mM to 500 mM). Fractions were analyzed by SDS-PAGE. Fractions containing sumo tag NDM-1 were buffer exchanged into 20 mM HEPES pH 7.0, 100 mM NaCl. Cleavage of the sumo tag was then carried out with ULP1 protease overnight at room temperature and then concentrated using a 10 k NMWL Amicon Ultra-15 Centrifugal Filter Unit. The sample was then loaded back onto a nickel affinity column and the flow through was collected, containing the untagged NDM-1. NDM-1 was concentrated and loaded onto a gel filtration column (GE Healthcare Life Sciences) pre-equilibrated with 20 mM HEPES pH 7.0, 100 mM NaCl. Protein concentration was determined by absorbance at 280 using an extinction coefficient of 27,960.
as §1, §2
For NDM-1, the procedures were the same as above except the assay was performed in 100 mM Tris-HCl pH 7.0, 1 μM ZnSO4, 0.01% Triton X-100. In addition, a nitrocefin concentration of 10 μM was used.

Test [3] has as its target OXA-48 (Klebsiella pneumoniae, UniProt Q6XEC0). Briefly: Steady-state kinetic β-lactamase inhibition, OXA-48. The following applies: read-out: OXA-48 % inhibition at stated concentration. It counts as biochemical.
Test [4] deals with CTX-M14 (Escherichia coli, UniProt Q9L5C7). Briefly: Steady-state kinetic nitrocefin hydrolysis inhibition, CTX-M14. The settings on record: for Ki: nitrocefin 50 μM, 1 nM enzyme, Ki=IC50/([S]/Km+1). It counts as biochemical. The method, then: as §1, §2
Test [5] addresses SHV-2 (Klebsiella pneumoniae, UniProt P0A9Z8). Briefly: Steady-state kinetic β-lactamase inhibition, SHV-2. It counts as biochemical.
Test [6] relates to BL21(DE3) E. coli expressing KPC-2. The test is described as follows: MIC studies, synergy with imipenem (broth microdilution). The following applies: Escherichia coli, 24 h, read-out: MIC of imipenem. It counts as cell-based. The method, then:
Compounds were tested for synergy with the carbapenem antibiotic, imipenem, against BL21(DE3) E. coli expressing KPC-2. MIC values were determined with the Mueller-Hinton broth microdilution method. To test for inhibitory activity, compounds were dissolved in DMSO and dilutions were carried out using LB broth. Compounds were test at 100 μM with increasing concentrations of imipenem. […] After inoculation, the plates are incubated at 37 C for 24 hours. The MIC of the compounds are then determined visually.
(In general: In broth dilution the organism is exposed to a series of concentrations in liquid medium.)

OXA-48, sequence (Q6XEC0 23-265 limits assumed): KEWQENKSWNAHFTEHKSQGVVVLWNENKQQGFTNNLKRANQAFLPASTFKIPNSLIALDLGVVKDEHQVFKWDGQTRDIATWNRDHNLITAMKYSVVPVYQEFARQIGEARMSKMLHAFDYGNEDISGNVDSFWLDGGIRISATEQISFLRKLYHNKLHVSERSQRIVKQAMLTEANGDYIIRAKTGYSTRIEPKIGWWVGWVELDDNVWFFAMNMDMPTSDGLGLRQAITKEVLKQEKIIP
CTX-M14, sequence (Q9L5C7 29-291, species assumed): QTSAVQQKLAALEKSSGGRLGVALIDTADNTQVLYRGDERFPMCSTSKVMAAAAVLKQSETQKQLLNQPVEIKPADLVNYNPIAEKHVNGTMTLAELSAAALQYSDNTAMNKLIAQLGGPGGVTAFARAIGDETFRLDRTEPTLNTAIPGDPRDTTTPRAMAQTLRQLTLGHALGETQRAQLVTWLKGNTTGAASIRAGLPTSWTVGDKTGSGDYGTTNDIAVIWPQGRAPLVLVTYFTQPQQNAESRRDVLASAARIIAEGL
T1 sequence (Q9F663 25-293 limits assumed): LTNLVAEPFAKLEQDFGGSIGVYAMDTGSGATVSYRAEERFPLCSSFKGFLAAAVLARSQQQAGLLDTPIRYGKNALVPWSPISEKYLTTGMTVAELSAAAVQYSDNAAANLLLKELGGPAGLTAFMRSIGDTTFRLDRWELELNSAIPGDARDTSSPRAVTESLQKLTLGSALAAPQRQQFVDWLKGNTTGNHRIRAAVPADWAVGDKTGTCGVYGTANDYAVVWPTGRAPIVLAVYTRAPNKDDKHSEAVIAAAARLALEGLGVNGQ
T2 sequence (C7C422 29-270, looked up, species assumed): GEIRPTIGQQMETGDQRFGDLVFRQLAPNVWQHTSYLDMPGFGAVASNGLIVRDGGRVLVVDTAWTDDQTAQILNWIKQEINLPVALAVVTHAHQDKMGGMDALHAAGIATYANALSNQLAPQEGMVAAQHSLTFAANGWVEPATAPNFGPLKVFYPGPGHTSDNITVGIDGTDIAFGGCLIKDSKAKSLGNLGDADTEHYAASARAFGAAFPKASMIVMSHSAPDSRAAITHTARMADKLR
SHV-2, sequence (P0A9Z8 22-286): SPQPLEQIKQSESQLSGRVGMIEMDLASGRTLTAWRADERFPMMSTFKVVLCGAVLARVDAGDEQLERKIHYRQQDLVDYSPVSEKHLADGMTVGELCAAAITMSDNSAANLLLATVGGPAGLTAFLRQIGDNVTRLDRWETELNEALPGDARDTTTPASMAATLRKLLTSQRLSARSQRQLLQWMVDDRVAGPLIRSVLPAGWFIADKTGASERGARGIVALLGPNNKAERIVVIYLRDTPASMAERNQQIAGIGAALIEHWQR

Regarding `O=C(Nc1nnn[nH]1)C1CN(C(=O)c2cccc(C(F)(F)F)c2)c2ccccc21` (centres unmarked) [Compound 2, N-(1H-tetrazol-5-yl)-1-(3-(trifluoromethyl)benzoyl)indoline-3-carboxamide], the Ki (in general, a measure of affinity in units of concentration, obtained from inhibition or displacement) in test [1] was found to be 1.2 µM; in test [2], 958 µM.

As to `O=C(Nc1nc(C(=O)Nc2nnn[nH]2)c(-c2ccccc2)s1)c1nccs1` [Compound 6, N-(4-((1H-tetrazol-5-yl)carbamoyl)-5-phenylthiazol-2-yl)thiazole-2-carboxamide], the inhibition at 4800 µM in test [3] was determined as 50%. In test [1], the affinity, expressed as Ki, was 26 µM.

Regarding `O=C(Nc1nnn[nH]1)[C@@H]1CCCN(S(=O)(=O)c2cccc(C(F)(F)F)c2)C1` [Compound 9, (R)—N-(1H-tetrazol-5-yl)-1-((3-(trifluoromethyl)phenyl)sulfonyl)piperidine-3-carboxamide], the inhibition at 4800 µM in test [3] is 20%. The inhibitory constant (Ki) in test [1] stood at 78 µM; in test [4], 243 µM.

Consider `O=C(N[C@H]1CCCCN(c2nnn[nH]2)C1=O)c1cc(C(F)(F)F)cc2nc[nH]c12.O=CO` [Compound 21, (S)—N-(2-oxo-1-(1H-tetrazol-5-yl)azepan-3-yl)-5-(trifluoromethyl)-1H-benzo[d]imidazole-7-carboxamide formate], for which the Ki was found to be 60 µM in test [5] and 236 µM in test [4]. Also, the “KPC-2 % inhibition at stated concentration” value (from here on “KPC-2 % inhibition”) in test [1] (at 1600 (uM)) turned out to be 30% at 1600.

Turning to `O=C(Nc1nnn[nH]1)C(Sc1ccccc1)c1ccccc1` (centres unmarked) [Compound 22, 2-phenyl-2-(phenylthio)-N-(1H-tetrazol-5-yl)acetamide], the Ki came out at 26.5 µM in test [1] and 58 µM in test [2].

With `O=C(Nc1nnn[nH]1)C(Nc1ccccc1)c1ccccc1` (centres unmarked) [Compound 25, 2-phenyl-2-(phenylamino)-N-(1H-tetrazol-5-yl)acetamide], the inhibition at 5000 µM in test [3] worked out at 40%. The results for the Ki in test [1] and in test [2] were 519 µM and 652 µM, respectively.

As to `O=C(Nc1nnn[nH]1)c1cn(S(=O)(=O)c2cccc(C(F)(F)F)c2)c2ccccc12` [Compound 27], the Ki in test [1] was 300 µM.

On to `CC(c1cccc(C(F)(F)F)c1)n1cc(C(=O)Nc2nnn[nH]2)c2ccccc21` (centres unmarked) [Compound 29], for which the “KPC-2 % inhibition” value in test [1] (at 1900 (uM)) was 50% at 1900. Also, the “CTX-M14 % inhibition at stated concentration” value in test [4] (at 1900 (uM)) was determined as 50% at 1900.

`O=C(Nc1nnn[nH]1)c1c[nH]c2ccccc12` [Compound 30]: the Ki in test [1] was 3000 µM; in test [2], 354 µM.

Take `CC1(C(=O)Nc2nnn[nH]2)CN(C(=O)c2cccc(C(F)(F)F)c2)c2ccccc21` (centres unmarked) [Compound 31]: the Ki in test [1] was found to be 354 µM; in test [2], 200 µM.

With `CC(=O)N1CC(C)(C(=O)Nc2nnn[nH]2)c2ccccc21` (centres unmarked) [Compound 32], the inhibition at 3900 µM in test [3] worked out at 16%. The “KPC-2 % inhibition” value in test [1] (at 4800 (uM)) was 40% at 4800. The same compound yielded a Ki in test [2] of 156 µM. In test [4] (at 4800 (uM)), the “CTX-M14 % inhibition at stated concentration” value stood at 10% at 4800.

Turning to `CC1(C(=O)Nc2nnn[nH]2)CN(S(C)(=O)=O)c2ccccc21` (centres unmarked) [Compound 33], the inhibition at 3900 µM in test [3] was determined as 20%. Also, the values for the Ki in test [1] and in test [2] were 2700 µM and 161 µM, respectively.

With `O=C(Nc1nc(C(=O)Nc2nnn[nH]2)c(-c2ccccc2)s1)c1ncc[nH]1.O=CO` [Compound 34], the inhibition at 1600 µM in test [3] amounted to 35%. Further, the affinity in test [1], expressed as Ki, was 111 µM. Further, the “NDM-1 % inhibition at stated concentration” value (shortened to “NDM-1 % inhibition”) in test [2] (at 1000 (uM)) came to 20% at 1000.

As to `O=C(Nc1nc(C(=O)Nc2nnn[nH]2)c(-c2ccccc2)s1)c1ncco1` [Compound 35], the inhibition at 800 µM in test [3] came to 20%.

For `O=C(Nc1nnn[nH]1)[C@@H]1CCN(C(=O)c2cccc(C(F)(F)F)c2)C1` [Compound 36], the values for the Ki in test [1], in test [2] and in test [4] were 2000 µM, 48 µM and 2980 µM, respectively.

For `O=C(Nc1nnn[nH]1)[C@@H]1CCN(S(=O)(=O)c2cccc(C(F)(F)F)c2)C1` [Compound 37], the inhibitory constant (Ki) turned out to be 470 µM in test [1] and 1000 µM in test [4]. Further, the “NDM-1 % inhibition” value in test [2] (at 1800 (uM)) is given as 30% at 1800.

For the compound `O=C(Nc1nnn[nH]1)[C@H]1CCN(C(=O)c2cccc(C(F)(F)F)c2)C1` [Compound 38], the Ki was 2000 µM in test [1] and 3000 µM in test [4]. For the same compound, in test [2] (at 3500 (uM)), the “NDM-1 % inhibition” value came out at 40% at 3500.

As for `O=C(Nc1nnn[nH]1)[C@H]1CCN(S(=O)(=O)c2cccc(C(F)(F)F)c2)C1` [Compound 39], the Ki in test [1] came out at 1500 µM; in test [4], 2000 µM. Besides, the “NDM-1 % inhibition” value in test [2] (at 1800 (uM)) was determined as 10% at 1800.

On to `O=C(Nc1nnn[nH]1)[C@@H]1CCCN(C(=O)c2cccc(C(F)(F)F)c2)C1` [Compound 40], for which, in test [3], the inhibition at 4800 µM turned out to be 35%. Also, the Ki in test [1] was 110 µM. In test [2] (at 1000 (uM)), the “NDM-1 % inhibition” value was 20% at 1000.

Regarding `O=C(CNc1ccccc1)Nc1nnn[nH]1` [Compound 42], the affinity in test [1], expressed as Ki, was 1200 µM. In other words, the millimolar range.

With `C[C@@H](O)[C@H]1C(=O)N2C(C(=O)O)=C(SCCN=CN)C[C@H]12` [Imipenem, imipenem], in test [6], the MIC (usually the lowest concentration found to suppress growth) is 2 µg/mL.
